In patent US20060135765A1, “Antineoplastic ether lipid compounds” (priority 2003, published 2006):
“And” between values parts separate entries of the source, which are not always exact repeats. Equal values may be shown once. Read-outs that look alike come from different tables or passages of the source.

Experiments:
WI38 = test: In vitro growth inhibition (SRB), WI-38 normal fibroblasts; type: cell-based, human; settings: WI38 normal cell line; 3 days
Description: (§1) III. In Vitro Growth Inhibition (GI50) A. Cell line maintenance The following cell lines were selected from the cell bank for screening and GI50 studies: MCF-7: human breast tumor, MCF-7/ADR: MCF-7 adriamycin resistant subline, HT-29: human colon carcinoma, A-549: human non-small cell lung cancer, NIH-3T3: mouse Swiss embryo fibroblast and WI-38: human lung fibroblast, SKMEL-28: human melanoma, Lewis Lung: mouse lung carcinoma, DU-145: prostate carcinoma, B16F10: mouse melanoma, L1210: murine lymphocytic leukemia, P-388: murine leukemia, U-937: human histolytic lymphoma. Except HT-29, WI-38, NIH-3T3 and Lewis Lung which were obtained from the American Type Culture Collection (Rockville, Md.) all the other cell lines were obtained from National Cancer Institute—Frederick Research Facility (Frederick, Md.). […]
(§2) The test compounds were made in-house and the compounds were dissolved PBS or saline at a stock concentration of approximately 20 mM, which is 400 times the desired final maximum test concentration. […] After 3 days of incubation, cell growth was determined.
The SRB assay was performed as described by Monks, A., Scudiero, D., Skehan, P., Shoemaker, R., Paull, K., Vistica, D., Hose, C., Langley, J., Cronise, P., and Vaigro-Wolff, A. Feasibility of a high-flux anticancer drug screen using a diverse panel of cultured human tumor cell lines. […] Bound SRB was solubilized with Tris buffer (10 mM), and the ODs were read using an automated plate reader (Bio-Rad, Model 3550-UV) at 490 nm. Background values were subtracted from the test data, and the data was calculated as a % of control. […] Percentage growth was calculated as described by Peters, A. C, Ahmad, L, Janoff, A. S., Pushkareva, M. Y., and Mayhew, E. Growth Inhibitory efects of liposome-associated 1-o-octadecyl-2-o-metlryl-sn-glycero-3-phosphocholine. […]

A549 = test: In vitro growth inhibition (SRB), A549; type: cell-based, human; settings: A549 tumor cell line; 3 days
Description: as §1, with “lymphoma.” for “lymphoma. Except HT-29, WI-38, NIH-3T3 and Lewis Lung which were obtained from the American Type Culture Collection (Rockville, Md.) all the other cell lines were obtained from National Cancer Institute—Frederick Research Facility (Frederick, Md.).”
as §2
(§3) The SRB assay was performed as described by Monks, A., Scudiero, D., Skehan, P., Shoemaker, R., Paull, K., Vistica, D., Hose, C., Langley, J., Cronise, P., and Vaigro-Wolff, A. Feasibility of a high-flux anticancer drug screen using a diverse panel of cultured human tumor cell lines. […] Bound SRB was solubilized with Tris buffer (10 mM), and the ODs were read using an automated plate reader (Bio-Rad, Model 3550-UV) at 490 nm. Background values were subtracted from the test data, and the data was calculated as a % of control. […]

MCF7 = test: In vitro growth inhibition (SRB), MCF7; type: cell-based, human; settings: MCF7 tumor cell line; 3 days
Description: as §1, with “lymphoma.” for “lymphoma. Except HT-29, WI-38, NIH-3T3 and Lewis Lung which were obtained from the American Type Culture Collection (Rockville, Md.) all the other cell lines were obtained from National Cancer Institute—Frederick Research Facility (Frederick, Md.).”
as §2, §3

[1] = tested on: platelets in dog whole blood; test: Platelet aggregation in dog whole blood (whole blood aggregometer)
Description: Briefly, whole citrated blood is diluted 1:2 with sterile saline and placed in a warm chamber with a mini stir bar. An electronic probe, measuring electrical resistance, is inserted in the sample. The aggregometer is calibrated and the baseline is observed to detect any spontaneous aggregation. The test sample is added and allowed to run for at least 6 minutes. If the sample is an agonist the platelets will start to aggregate and stick to the electronic probe causing resistance across the electrodes to increase. This resistance, in ohms, is measured 6 minutes post addition of sample. The test samples are run at 25, 100, 200, 400 and 800 uM and compared to 100 uM L-ET-18-OCH3.
Collection of Blood Sample for in vitro Platelet Aggregation Testing: Venous blood is collected in 4.5 mL Vacutainer tubes containing 0.129 M sodium citrate using a 21G needle or larger. Blood is immediately mixed by gentle inversion 15-20 times and kept at room temperature. Dilution ratio is 1 to 9 (3.8% citrate solution:blood). One (2.0 mL) Vacutainer tube containing EDTA is also collected for platelet counts. Complete blood counts (CBC) are measured on the CDC Technologies Hemavet 1500 to ensure that the test subject's platelets are within normal range. Any vials of hemolytic blood or blood containing any clots should be discarded. Platelet aggregation testing must be completed within 3 hours of blood collection. After this time the ability of platelets to aggregate decreases.
Cloudy solutions were warmed to 50° C. to dissolve and particles. Dilutions were prepared in PBS or saline at 40× concentration. (25 uL test sample are added to 1000 uL diluted blood (1:40)).
Procedure for in vitro Platelet Aggregation Test using CH NO-LOG Aggregometer Model 560-CA: The following protocol was used:

HT29 = test: In vitro growth inhibition (SRB), HT29; type: cell-based, human; settings: HT29 tumor cell line; 3 days
Description: as §1, with “lymphoma.” for “lymphoma. Except HT-29, WI-38, NIH-3T3 and Lewis Lung which were obtained from the American Type Culture Collection (Rockville, Md.) all the other cell lines were obtained from National Cancer Institute—Frederick Research Facility (Frederick, Md.).”
as §2, §3

Whole Human Blood = test: Hemolysis assay with whole human blood; type: cell-based
Description: Venous blood was collected in 10 mL Vacutainer tubes containing EDTA using a 21G needle or larger.
stock solutions of 20 mM test sample in phosphate buffered saline (PBS) were prepared as follows:
Then 270 uL of whole blood was aliquotted in duplicate mini test tubes using positive displacement pipet. Next, 30 uL of each working stock solution, in duplicate, was added to the whole blood. Next, 30 uL of PBS was added for background control. The samples were capped or sealed with Parafilm and gently mixed. The blood was incubated at 37° C. in gentle rotating water bath for 30 minutes. Final concentration of test sample was 10% of working stock solution.
Total hemolysis samples of 1% and 10% whole blood samples in deionized water were prepared as follows: 1:100=10 uL whole blood+990 uL deionized water 1:10=100 uL whole blood+900 uL deionized water
The samples were freeze thawed 3× in liquid nitrogen then water bath. The samples were then centrifuged 10 minutes at 1500 RPM. Next, 100 uL of supernatant was transferred to a cuvette and […] deionized water was added. The absorbance was read at 550 nm vs. water blank.
H10 and H50 were calculated by graphing Percent Total Hemolysis vs. Test Sample Concentration. The Percent Total Hemolysis=(average o.d of test sample)/(average o.d. of total hemolysis sample)×100

[2] = tested on: DEVDase activity in Jurkat T Cells; test: DEVDase activity in Jurkat T cells; type: cell-based
Description: Suspension cells were seeded at density 3.2×10^5 cells per mL in RPMI-1640 medium (Bio-Whittaker) supplemented with 10% heat inactivated FBS (Bio-Whittaker). Cells were pre-incubated overnight prior to treatment with the ether lipid compounds of the invention. At treatment time cell density was 5×10^5 cells per mL. Cells were incubated with the ether lipid compounds of the invention for various periods of time, usually 6 hours. Cells were collected, washed with 1×DPBS and resuspended in 110 μl of Buffer A (10 mM HEPES-KOH, pH 7.4, 2 mM EDTA, 0.1% CHAPS, 5 mM DTT, 1:100 dilution of protease inhibitors cocktail (SigmaYDTT and protease inhibitors should be added just before use). After 10 min incubation on ice in order to lyse cells, samples were frozen on dry ice/ethanol and kept at −20° C. until analysis. […] At the time of analysis of DEVDase activity frozen pellets were kept on ice until thawed and after vigorous vortexing samples were centrifuged at 14,000 rpm for 6 min. Supernatant was transferred into another tube and 2 μl, in triplicates, were used for protein measurement using Bradford reagent (Bio-Rad).
Measurement of DEVDase activity was carried out in 100 μl volume, where 10 μg of protein was delivered in 50 μl of Buffer A and 40 μM of substrate Ac-DEVD-AMC was also delivered in 50 μl of Buffer A. All measurements were done in triplicates. Reaction was carried out for 1 hour and generation of fluorescent product of reaction (aminomethylcoumarin) was measured by reading fluorescence at 1em 460 nm (1ex 360 nm). Changes in DEVDase activity were calculated after subtraction of background fluorescence of substrate incubated without proteins, and were expressed as percent of control (DEVDase activity in untreated cells). Average of DEVDase activity, calculated from few independent experiments, was used to calculate percent of L-ether lipid-induced DEVDase activity.

Washed Human RBCs = test: Hemolysis assay with washed human red blood cells; type: cell-based
Description: Venous blood was collected in 10 mL Vacutainer tubes containing EDTA using a 21G needle or larger. […] The blood was transferred from 1 EDTA tube to a 50 mL conical tissue culture tube and the volume was brought up to 50 mL with PBS.
The blood was centrifuged for 10 minutes at 1500 RPM. The supernatant was removed and the blood was resuspended up to 50 mL with PBS. Next the blood was centrifuged for 10 minutes at 1500 RPM.
The supernatant was removed, and 2.0 mL of packed red blood cells was carefully transferred, using positive displacement pipet, into a fresh conical tissue culture tube. Next, 48 mL PBS was added to achieve a 4% washed RBC solution.
Next, 25, 50, 100 and 200 uM stock solutions of test sample in phosphate buffered saline (PBS) as follows:
Next, 0.5 mL of 4% washed RBC was added to 0.5 mL test sample dilutions (in duplicate). The final concentration of test sample was 50% of working stock solution.
The samples were capped or sealed with Parafilm and the samples were gently mixed. The blood was incubated at 37° C. in gentle rotating water bath for 30 minutes. The samples were centrifuged for 10 minutes at 1500 RPM. Next, 200 uL of supernatant was transferred to a cuvette and 1 mL deionized water was added. Absorbance was measured at 550 nm vs. a water blank. Next, H10 and H50 were determined by graphing Absorbance vs. Test Sample Concentration.

NIH-3T3 = test: In vitro growth inhibition (SRB), NIH-3T3 normal fibroblasts; type: cell-based, mouse; settings: NIH-3T3 normal cell line; 3 days
Description: as §1, with “lymphoma.” for “lymphoma. Except HT-29, WI-38, NIH-3T3 and Lewis Lung which were obtained from the American Type Culture Collection (Rockville, Md.) all the other cell lines were obtained from National Cancer Institute—Frederick Research Facility (Frederick, Md.).”
as §2, §3

MCF7/ADR = test: In vitro growth inhibition (SRB), MCF7/ADR; type: cell-based, human; settings: MCF7/ADR tumor cell line; 3 days
Description: as §1, with “lymphoma.” for “lymphoma. Except HT-29, WI-38, NIH-3T3 and Lewis Lung which were obtained from the American Type Culture Collection (Rockville, Md.) all the other cell lines were obtained from National Cancer Institute—Frederick Research Facility (Frederick, Md.).”
as §2, §3

RPMI-8226 = test: NCI screen, RPMI-8226; type: cell-based, human; settings: leukemia panel
Description: (§4) Candidates deemed suitable for in vivo testing were then synthesized in large scale quantities and some of this material was sent to the NCI's Developmental Therapeutics Program for a battery of growth inhibitory studies against various human tumor cell lines (60 cell lines, 9 different panels). The remainder of the material was used to assess in vivo efficacy using murine tumor models. Additionally, studies were conducted on the lead candidates to discern mechanism of action with particular emphasis on these agents apoptotic ability as measured by caspase 3 activity. The details (materials and methods) for these various assays are described further in the following discussion.
(§5) Ten compounds were also sent to NCT's Drug Discovery Program for screening against numerous human tumor cell lines (9 panels total: renal ovarian, colon, CNS, non-small cell lung, leukemia, breast, melanoma, and prostate). The data are shown in FIGS. 2a-i which also include data regarding D- and L-ET-18-OCH3 (listed as L-EL and D-EL in the figures).

K-562 = test: NCI screen, K-562; type: cell-based, human; settings: leukemia panel
Description: as §4, §5

[3] = tested on: human umbilical vein endothelial cell (HUVEC) line; test: In vitro growth inhibition, HUVEC; type: cell-based
[4] = concentration producing 10% hemolysis
[5] = concentration producing 50% hemolysis

Structure (SMILES): CCCCCCCCCCCCCCCCCCOCC(CCP(=O)([O-])OCCC[N+](C)(C)C)OC [2(S), 3′-Trimethylaminopropyl-1-O-octadecyl-2-O-methylbutane-4-phospbonate]
- GI50 (WI38): < 4 µM
- GI50 (A549): 7.2 µM
- GI50 (MCF7): 34.8 µM
- platelet aggregation response (in words) [1]: no aggregation was noted
- Relative Platelet Aggregation (Ohms) ([1]; 25 μM): 0 Ohms
- Relative Platelet Aggregation (Ohms) ([1]; 100 μM): 0 Ohms
- Relative Platelet Aggregation (Ohms) ([1]; 200 μM): 0 Ohms
- Relative Platelet Aggregation (Ohms) ([1]; 400 μM): 0 Ohms
- Relative Platelet Aggregation (Ohms) ([1]; 800 μM): 0 Ohms
- platelet aggregation response (in words) ([1]; listed as 2): did not evoke a platelet aggregation response
- GI50 (HT29): 4.8 µM
- H10 (Whole Human Blood; [4]): 400 µM
- H50 (Whole Human Blood; [5]): >2000 µM
- % L-ET18OCH3 (DEVDase, 6 hrs) ([2]; [ether lipid] 10 μM): 57.2 ± 8.4 % L-ET18OCH3
- % L-ET18OCH3 (DEVDase, 6 hrs) ([2]; [ether lipid] 20 μM): 70.6 ± 10.8 % L-ET18OCH3
- % L-ET18OCH3 (DEVDase, 6 hrs) ([2]; [ether lipid] 30 μM): 76.8 ± 11.1 % L-ET18OCH3
- H10 (Washed Human RBCs; [4]): 14 µM and 8 µM
- H50 (Washed Human RBCs; [5]): 21 µM and 11 µM
- GI50 (NIH-3T3): 33.5 µM and 33.6 µM
- GI50 (MCF7/ADR): > 40 µM

Structure (SMILES): CCCCCCCCCCCCCCCCCCOCC(COP(=O)([O-])OCC[N+](C)(C)C)OC [D-ET18OCH3, 1-O-octadecyl-2-O-methyl-glycerophosphocholine]
- GI50 (WI38): 10 to 13 µM
- activity against RPMI-8226 (in words) (RPMI-8226): extremely poor activity
- % L-ET18OCH3 (DEVDase, 6 hrs) ([2]; [ether lipid] 10 μM): 79.3 ± 9.7 % L-ET18OCH3
- % L-ET18OCH3 (DEVDase, 6 hrs) ([2]; [ether lipid] 20 μM): 89.2 ± 12.2 % L-ET18OCH3
- % L-ET18OCH3 (DEVDase, 6 hrs) ([2]; [ether lipid] 30 μM): 92.1 ± 11.8 % L-ET18OCH3
- activity against K-562 (in words) (K-562): extremely poor activity

Structure (SMILES): CCCCCCCCCCCCCCCCCCOCC(COP(=O)([O-])OCC[N+](C)(C)C)OC [L-ET18OCH3, 1-O-octadecyl-2-O-methyl-glycerophosphocholine]
- GI50 (WI38): 10 to 12 µM
- GI50 [3]: 1.2 µM
- % L-ET18OCH3 (DEVDase, 6 hrs) ([2]; [ether lipid] 10 μM): 100 ± 8.8 % L-ET18OCH3
- % L-ET18OCH3 (DEVDase, 6 hrs) ([2]; [ether lipid] 20 μM): 100 ± 10.4 % L-ET18OCH3
- % L-ET18OCH3 (DEVDase, 6 hrs) ([2]; [ether lipid] 30 μM): 100 ± 9.3 % L-ET18OCH3
